Targets include PIK3CG (human) (UniProt P48736); PIK3CD (Human) (UniProt O00329); PIK3CA (human) (UniProt P42336); PIK3CB (Human) (UniProt P42338).
Experiment in all cases: Enzyme Assay

Bounds are passed on as bounds.

Sequence of PIK3CB (Human) (P42338 whole entry, looked up): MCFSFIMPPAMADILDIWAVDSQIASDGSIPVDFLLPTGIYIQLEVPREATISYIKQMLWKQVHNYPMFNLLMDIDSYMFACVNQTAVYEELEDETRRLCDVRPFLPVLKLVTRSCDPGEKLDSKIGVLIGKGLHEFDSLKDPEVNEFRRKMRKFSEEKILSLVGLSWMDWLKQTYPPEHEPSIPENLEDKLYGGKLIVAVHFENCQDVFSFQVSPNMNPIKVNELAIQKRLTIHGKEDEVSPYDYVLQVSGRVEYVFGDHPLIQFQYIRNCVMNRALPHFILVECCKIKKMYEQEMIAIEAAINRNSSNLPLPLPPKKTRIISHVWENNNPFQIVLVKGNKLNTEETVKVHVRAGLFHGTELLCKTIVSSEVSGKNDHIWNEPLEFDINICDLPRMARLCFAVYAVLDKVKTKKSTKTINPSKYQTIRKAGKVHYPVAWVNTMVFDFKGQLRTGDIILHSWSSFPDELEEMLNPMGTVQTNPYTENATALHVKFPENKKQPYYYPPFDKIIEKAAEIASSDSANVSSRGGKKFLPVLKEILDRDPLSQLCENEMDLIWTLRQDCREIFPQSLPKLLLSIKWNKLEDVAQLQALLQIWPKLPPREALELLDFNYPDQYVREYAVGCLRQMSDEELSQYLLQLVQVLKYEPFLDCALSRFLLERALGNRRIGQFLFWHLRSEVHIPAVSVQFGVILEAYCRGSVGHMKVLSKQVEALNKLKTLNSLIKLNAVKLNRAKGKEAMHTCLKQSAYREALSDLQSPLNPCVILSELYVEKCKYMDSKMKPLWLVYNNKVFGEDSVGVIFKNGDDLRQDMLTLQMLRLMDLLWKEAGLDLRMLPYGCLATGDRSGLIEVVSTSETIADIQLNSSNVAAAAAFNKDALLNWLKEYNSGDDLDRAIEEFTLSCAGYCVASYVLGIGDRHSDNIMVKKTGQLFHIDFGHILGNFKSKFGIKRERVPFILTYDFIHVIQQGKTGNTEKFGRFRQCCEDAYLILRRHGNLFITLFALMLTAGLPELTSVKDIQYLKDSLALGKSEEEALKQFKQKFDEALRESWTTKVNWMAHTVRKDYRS
Sequence of PIK3CA (human) (P42336 whole entry, looked up): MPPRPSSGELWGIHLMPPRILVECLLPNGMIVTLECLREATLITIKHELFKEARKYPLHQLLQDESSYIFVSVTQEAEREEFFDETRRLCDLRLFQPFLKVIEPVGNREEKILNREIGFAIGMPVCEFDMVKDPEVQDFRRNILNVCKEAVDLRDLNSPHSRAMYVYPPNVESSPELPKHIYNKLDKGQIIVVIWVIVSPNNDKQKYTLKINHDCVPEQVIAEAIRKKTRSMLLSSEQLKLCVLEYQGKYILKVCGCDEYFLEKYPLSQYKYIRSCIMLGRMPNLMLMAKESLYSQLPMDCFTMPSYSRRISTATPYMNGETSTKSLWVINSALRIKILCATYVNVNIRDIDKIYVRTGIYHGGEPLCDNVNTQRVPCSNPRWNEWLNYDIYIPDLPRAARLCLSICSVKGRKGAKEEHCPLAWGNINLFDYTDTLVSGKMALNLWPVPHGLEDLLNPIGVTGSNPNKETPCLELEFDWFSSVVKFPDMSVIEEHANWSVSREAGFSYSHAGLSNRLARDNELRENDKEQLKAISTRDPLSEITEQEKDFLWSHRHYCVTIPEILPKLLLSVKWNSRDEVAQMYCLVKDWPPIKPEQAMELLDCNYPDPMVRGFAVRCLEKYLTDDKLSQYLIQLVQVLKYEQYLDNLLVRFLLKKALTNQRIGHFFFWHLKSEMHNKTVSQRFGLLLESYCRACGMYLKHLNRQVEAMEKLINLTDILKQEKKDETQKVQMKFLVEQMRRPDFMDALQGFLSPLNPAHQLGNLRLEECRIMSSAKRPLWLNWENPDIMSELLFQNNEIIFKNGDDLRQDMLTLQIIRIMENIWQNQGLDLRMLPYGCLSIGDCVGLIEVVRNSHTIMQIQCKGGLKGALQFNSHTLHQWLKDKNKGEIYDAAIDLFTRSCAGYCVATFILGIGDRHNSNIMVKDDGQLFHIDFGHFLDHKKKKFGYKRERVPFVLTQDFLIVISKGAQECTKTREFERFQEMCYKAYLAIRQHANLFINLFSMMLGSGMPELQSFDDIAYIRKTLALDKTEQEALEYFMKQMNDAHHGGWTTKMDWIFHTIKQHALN
Sequence of PIK3CD (Human) (O00329 whole entry, looked up): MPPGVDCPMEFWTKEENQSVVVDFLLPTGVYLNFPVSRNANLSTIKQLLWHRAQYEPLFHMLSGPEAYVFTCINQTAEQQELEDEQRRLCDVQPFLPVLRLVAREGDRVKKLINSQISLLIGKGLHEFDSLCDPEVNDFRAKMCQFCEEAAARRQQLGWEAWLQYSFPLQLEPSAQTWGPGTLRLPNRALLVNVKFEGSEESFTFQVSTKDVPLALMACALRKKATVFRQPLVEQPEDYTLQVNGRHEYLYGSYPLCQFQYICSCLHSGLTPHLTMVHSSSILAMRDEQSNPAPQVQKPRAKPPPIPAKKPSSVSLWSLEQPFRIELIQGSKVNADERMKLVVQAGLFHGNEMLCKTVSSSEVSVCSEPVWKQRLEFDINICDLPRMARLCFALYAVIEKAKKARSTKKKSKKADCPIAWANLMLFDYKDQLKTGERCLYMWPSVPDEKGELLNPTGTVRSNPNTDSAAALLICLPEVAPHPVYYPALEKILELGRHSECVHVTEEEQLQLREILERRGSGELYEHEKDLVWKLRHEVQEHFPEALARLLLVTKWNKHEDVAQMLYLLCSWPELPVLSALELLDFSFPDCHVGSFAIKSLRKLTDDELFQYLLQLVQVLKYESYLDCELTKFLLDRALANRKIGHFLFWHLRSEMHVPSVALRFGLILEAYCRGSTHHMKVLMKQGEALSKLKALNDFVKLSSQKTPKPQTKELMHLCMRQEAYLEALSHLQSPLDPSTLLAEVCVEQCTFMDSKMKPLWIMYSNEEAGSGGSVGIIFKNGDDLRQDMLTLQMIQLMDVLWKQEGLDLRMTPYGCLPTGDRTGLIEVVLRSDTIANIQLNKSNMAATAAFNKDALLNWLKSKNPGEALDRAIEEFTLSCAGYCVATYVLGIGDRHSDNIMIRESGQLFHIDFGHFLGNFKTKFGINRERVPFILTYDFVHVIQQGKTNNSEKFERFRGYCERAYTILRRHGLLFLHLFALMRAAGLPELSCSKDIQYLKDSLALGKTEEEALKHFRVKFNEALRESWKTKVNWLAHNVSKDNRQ
Sequence of PIK3CG (human) (P48736 whole entry, looked up): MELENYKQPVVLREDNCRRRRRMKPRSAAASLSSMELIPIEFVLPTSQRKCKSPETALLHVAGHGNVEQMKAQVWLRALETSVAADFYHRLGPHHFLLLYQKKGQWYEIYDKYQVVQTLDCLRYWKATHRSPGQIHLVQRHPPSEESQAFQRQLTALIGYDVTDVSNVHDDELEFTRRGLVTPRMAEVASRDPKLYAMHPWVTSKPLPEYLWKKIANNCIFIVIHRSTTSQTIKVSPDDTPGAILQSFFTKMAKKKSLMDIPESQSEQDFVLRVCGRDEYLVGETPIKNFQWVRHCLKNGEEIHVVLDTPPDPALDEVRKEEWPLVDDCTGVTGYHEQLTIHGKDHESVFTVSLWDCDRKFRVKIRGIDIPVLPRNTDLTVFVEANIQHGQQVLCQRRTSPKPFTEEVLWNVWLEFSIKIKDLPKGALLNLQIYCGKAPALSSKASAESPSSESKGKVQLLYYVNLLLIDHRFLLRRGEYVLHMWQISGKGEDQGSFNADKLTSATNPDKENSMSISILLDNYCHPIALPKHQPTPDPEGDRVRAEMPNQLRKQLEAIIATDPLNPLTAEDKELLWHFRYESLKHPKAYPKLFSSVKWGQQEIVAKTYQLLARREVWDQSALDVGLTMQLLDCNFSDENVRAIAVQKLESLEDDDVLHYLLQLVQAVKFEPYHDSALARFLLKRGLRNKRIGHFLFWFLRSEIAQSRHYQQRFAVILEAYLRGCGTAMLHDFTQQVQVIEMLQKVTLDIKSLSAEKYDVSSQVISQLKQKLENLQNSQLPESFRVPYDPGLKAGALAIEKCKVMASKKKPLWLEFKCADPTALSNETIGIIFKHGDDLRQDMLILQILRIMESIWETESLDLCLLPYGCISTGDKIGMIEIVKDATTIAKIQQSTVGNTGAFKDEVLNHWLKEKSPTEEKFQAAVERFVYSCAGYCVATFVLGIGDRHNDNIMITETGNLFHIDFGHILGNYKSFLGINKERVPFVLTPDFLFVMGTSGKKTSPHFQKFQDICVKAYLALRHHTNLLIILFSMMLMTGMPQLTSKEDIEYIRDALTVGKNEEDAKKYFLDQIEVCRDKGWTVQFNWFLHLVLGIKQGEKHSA

Broadly, the IC50 is the concentration at which inhibition is half-maximal. The low end stands for greater potency, the high end for weaker potency. Take `Cc1cccc2cc(Cn3nc(I)c4c(N)ncnc43)n(-c3ccccc3F)c(=O)c12`: the IC50 at PIK3CG (human) lay within 100 to 1000 nM.

With `CC(=O)Nc1nc2ccc(-c3nn(Cc4cc5cccc(C)c5c(=O)n4-c4ccccc4)c4ncnc(N)c34)cc2o1`, the IC50 at PIK3CD (Human) and on PIK3CG (human) was 100 to 1000 nM each time.

`C=C(C)c1nn(Cc2cc3cccc(C)c3c(=O)n2-c2ccccc2)c2ncnc(N)c12`: the IC50 against PIK3CA (human) was above 10000 nM; against PIK3CD (Human) it was below 100 nM; against PIK3CG (human) it was 100 to 1000 nM.

As to `COc1ccc(-c2nn(Cc3cc4cccc(C)c4c(=O)n3-c3ccccc3F)c3ncnc(N)c23)cc1OC`, the IC50 against PIK3CA (human) was above 10000 nM; against PIK3CD (Human) it was 100 to 1000 nM; on PIK3CG (human) it was 100 to 1000 nM.

For the molecule `CCC(Nc1ncnc2[nH]cnc12)c1cc2cccc(C)c2c(=O)n1C1CCC1` (centres undefined), the half-maximal inhibitory concentration (IC50) on PIK3CA (human) was above 10000 nM; against PIK3CD (Human), below 100 nM; against PIK3CG (human) it was 100 to 1000 nM.

Regarding `Cc1cccnc1-n1c(Cn2nc(I)c3c(N)ncnc32)cc2cccc(C)c2c1=O`, the IC50 against PIK3CA (human) was above 10000 nM; against PIK3CD (Human), 100 to 1000 nM; on PIK3CG (human), 100 to 1000 nM.

For the molecule `Cc1ccccc1-n1c(Cn2nc(-c3ccc(Cl)cc3)c3c(N)ncnc32)cc2cccc(C)c2c1=O`, the figures for the IC50 on PIK3CA (human), against PIK3CD (Human) and at PIK3CG (human) were above 10000 nM, 100 to 1000 nM and 100 to 1000 nM, respectively.

Take `Cc1cccc2cc(C(C)Nc3ncnc4[nH]cnc34)n(C3CCOCC3)c(=O)c12` (centres undefined): the IC50 on PIK3CD (Human) was below 100 nM; against PIK3CG (human), 100 to 1000 nM.

Turning to `Cc1cccc2cc(Cn3nc(-c4cc(O)cc(F)c4)c4c(N)ncnc43)n(C(C)C)c(=O)c12`, the IC50 at PIK3CB (Human) and against PIK3CG (human) was 100 to 1000 nM in each case.

Turning to `CC(Nc1ncnc2[nH]cnc12)c1cc2ccccc2c(=O)n1-c1ccccc1` (centres undefined), the IC50 is above 10000 nM at PIK3CA (human), below 100 nM at PIK3CD (Human) and 100 to 1000 nM on PIK3CG (human).

As for `Cc1cccc2cc(Cn3nc(-c4ccc(Cl)c(O)c4)c4c(N)ncnc43)n(C3CCCC3)c(=O)c12`, the IC50 against PIK3CD (Human) and against PIK3CG (human) was 100 to 1000 nM in each case.

On to `Cc1ccccc1-n1c(Cn2nc(-c3cc(O)cc(F)c3)c3c(N)ncnc32)cc2cccc(F)c2c1=O`, for which the IC50 was above 10000 nM on PIK3CA (human) and 100 to 1000 nM against PIK3CG (human).

`COc1cccc(-c2nn(Cc3cc4cccc(C)c4c(=O)n3-c3ccccc3C)c3ncnc(N)c23)c1`: the IC50 is above 10000 nM on PIK3CA (human), 100 to 1000 nM against PIK3CD (Human) and 100 to 1000 nM against PIK3CG (human).

For the molecule `Cc1cccc2cc(Cn3nc(I)c4c(N)ncnc43)n(-c3ccccc3Cl)c(=O)c12`, the values for the IC50 at PIK3CB (Human) and at PIK3CG (human) were above 10000 nM and 100 to 1000 nM, respectively.

With `Cc1ccccc1-n1c(Cn2nc(C(N)=O)c3c(N)ncnc32)cc2cccc(C)c2c1=O`, the IC50 at PIK3CA (human) was above 10000 nM; at PIK3CD (Human), 100 to 1000 nM; against PIK3CG (human), 100 to 1000 nM.

`Cc1cccc2cc(Cn3nc(C(F)F)c4c(N)ncnc43)n(-c3ccccc3)c(=O)c12`: the values for the half-inhibitory concentration (IC50) on PIK3CA (human), against PIK3CD (Human) and at PIK3CG (human) were above 10000 nM, below 100 nM and 100 to 1000 nM, respectively.

Regarding `Cc1ccccc1-n1c(Cn2nc(Cl)c3c(N)ncnc32)cc2cccc(C)c2c1=O`, the concentration for half-maximal inhibition (IC50) is above 10000 nM on PIK3CA (human) and 100 to 1000 nM on PIK3CG (human).

In the case of `Cc1ccncc1-n1c(Cn2nc(I)c3c(N)ncnc32)cc2cccc(C)c2c1=O`, the figures for the IC50 against PIK3CB (Human) and on PIK3CG (human) were above 10000 nM and 100 to 1000 nM, respectively.

As to `Cc1cccc2cc(Cn3nc(-c4cn[nH]c4)c4c(N)ncnc43)n(-c3ccccc3F)c(=O)c12`, the IC50 against PIK3CA (human) is above 10000 nM; at PIK3CG (human), 100 to 1000 nM.

For `Cc1ccccc1-n1c(Cn2nc(C(=O)NO)c3c(N)ncnc32)cc2cccc(C)c2c1=O`, the IC50 on PIK3CA (human) is above 10000 nM; against PIK3CD (Human), 100 to 1000 nM; at PIK3CG (human), 100 to 1000 nM.

On to `C=Cc1nn(Cc2cc3cccc(C)c3c(=O)n2-c2ccccc2)c2ncnc(N)c12`, for which the IC50 was below 100 nM against PIK3CD (Human) and 100 to 1000 nM at PIK3CG (human).

Turning to `Cc1cccc2cc(Cn3nc(-c4ccc(O)cc4)c4c(N)ncnc43)n(-c3ccccc3F)c(=O)c12`, the IC50 against PIK3CG (human) lay within 100 to 1000 nM.

In the case of `Cc1cccc2cc(Cn3nc(-c4cccc(Cl)c4)c4c(N)ncnc43)n(-c3ccccc3F)c(=O)c12`, the IC50 against PIK3CB (Human) and against PIK3CG (human) was above 10000 nM throughout.

Take `Cc1cccc2cc(Cn3nc(-c4ccc5nc(N)oc5c4)c4c(N)ncnc43)n(-c3ccccc3)c(=O)c12`: the results for the IC50 against PIK3CD (Human) and against PIK3CG (human) were 100 to 1000 nM and below 100 nM, respectively.

`Cc1cccc2cc(Cn3nc(-c4cc(O)cc(F)c4)c4c(N)ncnc43)n(-c3ccccc3OCCN3CCOCC3)c(=O)c12`: the IC50 against PIK3CG (human) was in the range of 100 to 1000 nM.

For `Cc1cccc2cc(C(C)Nc3ncnc4[nH]cnc34)n(C(C)C)c(=O)c12` (centres undefined), the IC50 was below 100 nM against PIK3CD (Human) and 100 to 1000 nM against PIK3CG (human).

Turning to `Cc1cccc2cc(Cn3nc(-c4cn[nH]c4)c4c(N)ncnc43)n(-c3ccccc3C(F)(F)F)c(=O)c12`, the IC50 is above 10000 nM on PIK3CA (human), below 100 nM at PIK3CD (Human) and 100 to 1000 nM on PIK3CG (human).

Regarding `CCc1ccccc1-n1c(Cn2nc(C#C[C@@H](C)O)c3c(N)ncnc32)cc2cccc(C)c2c1=O`, the IC50 against PIK3CA (human) was above 10000 nM; at PIK3CG (human), 100 to 1000 nM.

Turning to `Cc1cccc2cc(Cn3nc(-c4cccc(O)c4)c4c(N)ncnc43)n(C3CCCC3)c(=O)c12`, the half-maximal inhibitory concentration (IC50) was above 10000 nM against PIK3CA (human) and 100 to 1000 nM against PIK3CG (human).

With `Cc1cccc2cc(C(C)Nc3ncnc4[nH]cnc34)n(-c3cccc(F)c3)c(=O)c12` (centres undefined), the IC50 against PIK3CD (Human) was below 100 nM; on PIK3CG (human), 100 to 1000 nM.

Take `Cc1cccc2cc(Cn3nc(-c4cn[nH]c4)c4c(N)ncnc43)n(-c3ccccc3)c(=O)c12`: the IC50 is below 100 nM at PIK3CD (Human) and 100 to 1000 nM against PIK3CG (human).

`CCC(Nc1ncnc2[nH]cnc12)c1cc2cccc(C)c2c(=O)n1-c1ccccc1C` (centres undefined): the IC50 against PIK3CA (human) is above 10000 nM; at PIK3CD (Human), below 100 nM; at PIK3CG (human), 100 to 1000 nM.

As for `CCC(Nc1ncnc2[nH]cnc12)c1cc2ccccc2c(=O)n1-c1ccccc1` (centres undefined), the IC50 is above 10000 nM against PIK3CA (human), above 10000 nM against PIK3CB (Human) and below 100 nM on PIK3CD (Human).

Regarding `Cc1cccc2cc([C@H](C)Nc3ncnc4[nH]cnc34)n(-c3cccc(F)c3)c(=O)c12`, the figures for the IC50 against PIK3CA (human), against PIK3CB (Human) and against PIK3CD (Human) were above 10000 nM, 100 to 1000 nM and below 100 nM, respectively.

For the molecule `Cc1cccc2cc([C@H](C)Nc3ncnc4[nH]c(Cl)nc34)n(C3CC3)c(=O)c12`, the IC50 against PIK3CA (human), at PIK3CB (Human) and at PIK3CD (Human) was above 10000 nM in each case.

On to `Cc1ccccc1-n1c(Cn2nc(-c3ccn[nH]3)c3c(N)ncnc32)cc2cccc(C)c2c1=O`, for which the half-inhibitory concentration (IC50) is above 10000 nM against PIK3CA (human), above 10000 nM against PIK3CB (Human) and 100 to 1000 nM against PIK3CD (Human).

For the molecule `Cc1cccc2cc([C@H](C)Nc3ncnc4[nH]cc(C(N)=O)c34)n(-c3ccccc3)c(=O)c12`, the IC50 against PIK3CA (human) was 100 to 1000 nM; against PIK3CB (Human), below 100 nM; at PIK3CD (Human) it was below 100 nM.

`Cc1cccc2cc(Cn3nc(-c4ccc5oc(N)nc5c4)c4c(N)ncnc43)n(C3CC3)c(=O)c12`: the results for the concentration for half-maximal inhibition (IC50) against PIK3CA (human), on PIK3CB (Human) and against PIK3CD (Human) were below 100 nM, 100 to 1000 nM and below 100 nM, respectively.

Consider `Cc1cccc2cc(Cn3nc(-c4ccc(O)c(F)c4)c4c(N)ncnc43)n(-c3ccccc3F)c(=O)c12`, for which the IC50 was above 10000 nM at PIK3CA (human), above 10000 nM against PIK3CB (Human) and 100 to 1000 nM at PIK3CD (Human).

For `CNc1ncc(Cl)c(N[C@@H](C)c2cc3cccc(C)c3c(=O)n2-c2ccccc2)n1`, the IC50 on PIK3CA (human) is above 10000 nM; at PIK3CD (Human) it was 100 to 1000 nM; on PIK3CG (human) it was 100 to 1000 nM.

Take `Cc1ccccc1-n1c(Cn2nc(-c3cccc(O)c3)c3c(N)ncnc32)cc2ccccc2c1=O`: the IC50 is above 10000 nM on PIK3CA (human) and 100 to 1000 nM on PIK3CG (human).
